For one assay, the target named is T1, Human recombinant ECE-1 (Homo sapiens, UniProt P42892).
T1 construct: host or cells: murine myeloma NS0 cells
T1 sequence (P42892 1-770): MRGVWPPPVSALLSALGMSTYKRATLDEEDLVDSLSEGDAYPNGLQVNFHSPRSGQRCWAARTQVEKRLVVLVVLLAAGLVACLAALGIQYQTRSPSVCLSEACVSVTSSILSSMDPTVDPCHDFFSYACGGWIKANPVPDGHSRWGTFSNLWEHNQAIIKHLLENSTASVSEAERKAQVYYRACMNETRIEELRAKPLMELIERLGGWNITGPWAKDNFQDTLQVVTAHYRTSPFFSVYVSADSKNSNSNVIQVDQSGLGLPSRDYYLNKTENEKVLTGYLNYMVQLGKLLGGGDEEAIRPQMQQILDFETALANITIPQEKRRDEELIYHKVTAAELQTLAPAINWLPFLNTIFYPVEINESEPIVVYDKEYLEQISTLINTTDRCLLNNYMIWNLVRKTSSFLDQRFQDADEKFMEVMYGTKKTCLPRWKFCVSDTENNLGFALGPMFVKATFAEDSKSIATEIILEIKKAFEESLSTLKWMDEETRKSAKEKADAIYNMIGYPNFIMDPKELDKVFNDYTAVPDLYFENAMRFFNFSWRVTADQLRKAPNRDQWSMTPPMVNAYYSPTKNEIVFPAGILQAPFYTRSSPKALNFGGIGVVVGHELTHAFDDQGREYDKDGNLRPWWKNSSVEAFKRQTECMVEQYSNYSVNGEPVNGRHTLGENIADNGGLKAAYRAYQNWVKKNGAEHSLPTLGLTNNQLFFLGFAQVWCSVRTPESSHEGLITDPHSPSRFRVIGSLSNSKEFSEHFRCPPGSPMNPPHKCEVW
The experiment in a line: Endothelin converting enzyme-1 (ECE-1) enzyme assay. The assay is classed as biochemical. As to conditions: for inhibition at 10 µM: read-out: % Inhibition at 10 μM. Here is the method:
(§1) 2. Enzyme Assays for the Peptidase Endothelin Converting Enzyme-1 (ECE-1) and for the Cysteine Protease Cathepsin S (CatS)
(§2) The assays were performed according to provider's (Ricerca Biosciences, LLC) protocols which in turn are based on literature procedures (for ECE-1 cf.: O. Valdenaire et al., Eur. J. Biochem. 1999, 264, 341-349; F. D. Russell, A. P. Davenport, Circ. Res. 1999, 84, 891-896; and for CatS: G P Shi et al., J. Biol. Chem. 1992, 267, 7258-62; D Brömme et al., J. Biol. Chem. 1993 268, 4832-4838.).
Human recombinant ECE-1 expressed in murine myeloma cells NS0 is used. Test compound and/or vehicle is preincubated with 20 ng/ml enzyme in modified MES buffer pH 6.0 for 15 minutes at 25° C. The reaction is initiated by addition of […] Mca-[…]Dnp) for another 60 minutes' incubation period. Determination of the amount of Mca-Arg-Pro-Pro-Gly-Phe-Ser-Ala formed is read […] at 320 nm/405 nm. Compounds are screened at […].
IC50 values were determined by a non-linear, least squares regression analysis using MathIQ™ (ID Business Solutions Ltd., UK). […] The Hill coefficient (nH), defining the slope of the competitive binding curve, was calculated using MathIQ™.

Assay [1] deals with T2, Human recombinant cathepsin S (Homo sapiens, UniProt P25774).
T2 construct: host or cells: murine myeloma NS0 cells
The experiment in a line: Cathepsin S (CatS) enzyme assay. The assay is classed as biochemical. To be noted: for inhibition at 10 µM: 10 μM compound. The protocol: as §1, §2
Human recombinant cathepsin S expressed in a murine myeloma NS0 cells is used. Test compound and/or vehicle is preincubated with 0.1 μg/ml enzyme in modified acetate buffer pH 4.5 for 15 minutes at 25° C. The reaction is initiated by addition of […] Z-Leu-Arg-AMC for another 30 minutes' incubation period. Determination of the amount of AMC formed is read spectrofluorimetrically at 360 nm/465 nm. […]
IC50 values were determined by a non-linear, least squares regression analysis using MathIQ™ (ID Business Solutions Ltd., UK). Inhibition constants K were calculated according to the equation of Cheng and Prusoff (Y. Cheng, W. H. Prusoff, Biochem. Pharmacol. 1973, 22, 3099-3108) using the observed IC50 of the tested compound, the concentration of radioligand employed in the assay, and the historical values for the KD of the ligand. The Hill coefficient (nH), defining the slope of the competitive binding curve, was calculated using MathIQ™.

T2 sequence (P25774 115-331): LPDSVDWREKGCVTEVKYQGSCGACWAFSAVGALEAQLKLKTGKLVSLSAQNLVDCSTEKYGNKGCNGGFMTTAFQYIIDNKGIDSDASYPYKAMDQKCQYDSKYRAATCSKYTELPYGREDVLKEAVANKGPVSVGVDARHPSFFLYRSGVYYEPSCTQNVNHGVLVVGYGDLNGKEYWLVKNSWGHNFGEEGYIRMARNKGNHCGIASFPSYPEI

For the compound `CN1CCC[C@H](NC(=O)Cc2ccccc2)C(=O)N2C[C@@H](NC(=O)Cc3ccc4ccccc4c3)C[C@H]2COc2ccccc2-c2cccc(c2)C1=O` [Ex. 25, N-[(10S,12S,16S)-20-methyl-15,21-dioxo-16-[(2-phenylacetyl)amino]-8-oxa-14,20-diazatetracyclo[20.3.1.0^2,7.0^10,14]hexacosa-1(26),2,4,6,22,24-hexaen-12-yl]-2-(2-naphthyl)acetamide], at Human recombinant ECE-1, the IC50 was 4.28 µM and the inhibition at 10 µM is 97%. Besides, in assay [1], the half-maximal inhibitory concentration (IC50) is 3.18 µM and the inhibition at 10 µM came to 87%.

With `CN1CCC[C@H](NC(=O)OCc2ccccc2)C(=O)N2C[C@@H](NC(=O)Cc3ccc4ccccc4c3)C[C@H]2COc2ccccc2-c2cccc(c2)C1=O` [Ex. 18, benzyl N-[(10S,12S,16S)-20-methyl-12-{[2-(2-naphthyl)acetyl]amino}-15,21-dioxo-8-oxa-14,20-diazatetracyclo[20.3.1.0^2,7.0^10,14]hexacosa-1(26),2,4,6,22,24-hexaen-16-yl]carbamate], at Human recombinant ECE-1, the half-inhibitory concentration (IC50) was 3.01 µM and the inhibition at 10 µM came to 98%. Besides, in assay [1], the IC50 was found to be 3.65 µM and the inhibition at 10 µM was 82%.

With `CN1CCC[C@H](NC(=O)c2ccccc2)C(=O)N2C[C@@H](NC(=O)Cc3ccc4ccccc4c3)C[C@H]2COc2ccccc2-c2cccc(c2)C1=O` [Ex. 26, N-[(10S,12S,16S)-20-methyl-12-{[2-(2-naphthyl)acetyl]amino}-15,21-dioxo-8-oxa-14,20-diazatetracyclo[20.3.1.0^2,7.0^10,14]hexacosa-1(26),2,4,6,22,24-hexaen-16-yl]benzamide], on Human recombinant ECE-1, the IC50 was 4.07 µM and the inhibition at 10 µM was 98%. In assay [1], the half-inhibitory concentration (IC50) turned out to be 3.83 µM and the inhibition at 10 µM stood at 81%.

Usually IC50 stands for the concentration needed to halve the response being measured. What is called inhibition is how much of the control response was suppressed.
